Data on 22 compounds can be found in paper PMC12608155, “Discovery of Potential Antileishmanial Compounds Through Phenotypic Screening of an Alkaloid Library” (Molecules, 2025).

Like-named read-outs stand apart in the source and are kept apart here.

This assay concerns L. donovani IRFP axenic amastigotes. As to the kind of experiment: Primary single-concentration screening on axenic amastigotes, growth inhibition at 72 h. The class given is cell-based, Leishmania donovani. To be noted: axenic amastigotes; for inhibition at 1 µM / inhibition at 10 µM: Leishmania donovani; for inhibition at 1 µM / Growth Inhibition (%) at 72h, 1 µM_Exp1 / Growth Inhibition (%) at 72h, 1 µM_Exp2: 1 µM; for inhibition at 10 µM / Growth Inhibition (%) at 72h, 10 µM_Exp1 / Growth Inhibition (%) at 72h, 10 µM_Exp2: 10 µM.

Setting [1] is: experiment 1, 72 h, read-out: Growth Inhibition (%) at 72h, 1 µM_Exp1.
Setting [2] is: experiment 2, 72 h, read-out: Growth Inhibition (%) at 72h, 1 µM_Exp2.
Where [3] appears, read: experiment 1, 72 h, read-out: Growth Inhibition (%) at 72h, 10 µM_Exp1.
[4] abbreviates: experiment 2, 72 h, read-out: Growth Inhibition (%) at 72h, 10 µM_Exp2.

As to `O=C(/C=C/C=C/c1ccc2c(c1)OCO2)N1CCCCC1` [Piperine], the inhibition (commonly the relative decrease from the control value, in per cent) at 1 µM runs as follows: under setting [1], 38.3%; under setting [2], 17.5%. Further, the inhibition at 10 µM is -7.31% under setting [3] and 75.2% under setting [4].
On to `COc1ccc2cc3[n+](cc2c1OC)CCc1cc(O)c(O)cc1-3.[Cl-]` [Demethyleneberberine (chloride)], for which, under “experiment 1, 72 h”, the “Growth Inhibition (%) at 72h, 1 µM_Exp1” value is given as -4.24% and the “Growth Inhibition (%) at 72h, 10 µM_Exp1” value came to 43.2%. For the same compound, under “experiment 2, 72 h”, the “Growth Inhibition (%) at 72h, 1 µM_Exp2” value was found to be 8.25% and the “Growth Inhibition (%) at 72h, 10 µM_Exp2” value is listed as 71.18%.
On the same counts, the results for `CC[C@@]1(O)C(=O)OCc2c1cc1n(c2=O)Cc2cc3c(OC)cccc3nc2-1` [9-Methoxycamptothecin] are 64.49%, 96.02%, 73.97% and 94.80%.
In the case of `COc1cc(CNC(=O)CCCCCCC(C)C)ccc1O` [Dihydrocapsaicin], the inhibition at 1 µM was -4.08% under setting [1] and 35.3% under setting [2]. For the same compound, the inhibition at 10 µM by setting is: under setting [3], 92%; under setting [4], 71.1%.
Take Evocarpine: under “experiment 1, 72 h”, the “Growth Inhibition (%) at 72h, 1 µM_Exp1” value is listed as -18.62% and the “Growth Inhibition (%) at 72h, 10 µM_Exp1” value came out at 100.35%. For the setting “experiment 2, 72 h”, the “Growth Inhibition (%) at 72h, 1 µM_Exp2” value is on record as -35.10% and the “Growth Inhibition (%) at 72h, 10 µM_Exp2” value amounted to 98.71%.
On the same counts, the results for `CN1c2ccccc2C(=O)N2CCc3c([nH]c4ccccc34)[C@@H]21` (racemic) [(±)-Evodiamine] are 64.72%, 100.52%, 40.81% and 97.39%.
The matching figures for `CC[C@H]1CN2CCc3cc(OC)c(OC)cc3[C@@H]2C[C@@H]1C[C@H]1NCCc2cc(O)c(OC)cc21.Cl.Cl` [Cephaeline (dihydrochloride)]: -15.97%, 96.96%, -74.54% and 92.99%.
As to `[Cl-].c1c2c(cc3c1OCO3)-c1cc3ccc4c(c3c[n+]1CC2)OCO4` [Coptisine (chloride)], where the note is “experiment 1, 72 h”, the “Growth Inhibition (%) at 72h, 1 µM_Exp1” value is on record as 29.53% and the “Growth Inhibition (%) at 72h, 10 µM_Exp1” value was 84.96%. Besides, under “experiment 2, 72 h”, the “Growth Inhibition (%) at 72h, 1 µM_Exp2” value amounted to 16.08% and the “Growth Inhibition (%) at 72h, 10 µM_Exp2” value is 96.73%.
On to Evodiamine, for which, where the note is “experiment 1, 72 h”, the “Growth Inhibition (%) at 72h, 1 µM_Exp1” value is -42.64% and the “Growth Inhibition (%) at 72h, 10 µM_Exp1” value stood at 94.67%. Further, for the setting “experiment 2, 72 h”, the “Growth Inhibition (%) at 72h, 1 µM_Exp2” value was determined as 25.77% and the “Growth Inhibition (%) at 72h, 10 µM_Exp2” value was 96.80%.
On the same counts, the results for `CCc1ccc(O)c2cc3c(nc12)-c1cc2c(c(=O)n1C3)COC(=O)[C@]2(O)CC` [12-Ethyl-9-hydroxycamptothecin] are 22.17%, 70.30%, 56.54% and 62.49%.
Turning to `CC[C@@]1(O)C(=O)OCc2c1cc1n(c2=O)Cc2cc3ccccc3nc2-1` [Camptothecin], the inhibition at 1 µM stood at 66.4% under setting [1] and 89.3% under setting [2]. Besides, the inhibition at 10 µM was 91% under setting [3] and 95.9% under setting [4].
As to `CCc1c2c(nc3ccccc13)-c1cc3c(c(=O)n1C2)COC(=O)[C@]3(O)CC` [7-Ethylcamptothecin], where the note is “experiment 1, 72 h”, the “Growth Inhibition (%) at 72h, 1 µM_Exp1” value stood at 70.44% and the “Growth Inhibition (%) at 72h, 10 µM_Exp1” value came out at 96.57%. For the same compound, for the setting “experiment 2, 72 h”, the “Growth Inhibition (%) at 72h, 1 µM_Exp2” value came out at 77.88% and the “Growth Inhibition (%) at 72h, 10 µM_Exp2” value worked out at 91.90%.
On the same counts, the results for `CC[C@]1(O)C[C@@H]2CN(CCc3c([nH]c4ccccc34)[C@@](C(=O)OC)(c3cc4c(cc3OC)N(C)[C@H]3[C@@](O)(C(=O)OC)[C@H](OC(C)=O)[C@]5(CC)C=CCN6CC[C@]43[C@@H]65)C2)C1.O=S(=O)(O)O` [Vinblastine (sulfate)] are -20.42%, 99.34%, -25.23% and 78.77%.
The matching figures for `Br.O=C(CC1NCCCC1O)Cn1cnc2cc(Br)c(Cl)cc2c1=O` (stereo not shown) [Halofuginone (hydrobromide)]: 99.34%, 100.16%, 83.65% and 98.51%.
On to `COc1ccc2cc3[n+](cc2c1OC)CCc1cc2c(cc1-3)OCO2.O=S(=O)([O-])O` [Berberine (sulfate)], for which, for the setting “experiment 1, 72 h”, the “Growth Inhibition (%) at 72h, 1 µM_Exp1” value is recorded as 19.57% and the “Growth Inhibition (%) at 72h, 10 µM_Exp1” value came out at 70.74%. For the same compound, where the note is “experiment 2, 72 h”, the “Growth Inhibition (%) at 72h, 1 µM_Exp2” value was -24.39% and the “Growth Inhibition (%) at 72h, 10 µM_Exp2” value worked out at 94.59%.
On the same counts, the results for `COc1ccc2cc3[n+](cc2c1OC)CCc1cc2c(cc1-3)OCO2.[Cl-]` [Berberine (chloride)] are 16.68%, 99.29%, 6.56% and 97.39%.
On the same counts, the results for `CC/C=C\C/C=C\C/C=C\CCCCCCCC(=O)NCc1ccccc1` [N-Benzyllinolenamide] are -37.93%, 99.95%, -43.83% and 100.85%.
Consider `O=C(O)Cc1c[nH]c2ccccc12` [3-Indoleacetic acid], for which the inhibition at 1 µM is, setting by setting: under setting [1], -25.4%; under setting [2], -9.83%. In addition, the inhibition at 10 µM runs as follows: under setting [3], 102%; under setting [4], 101%.
Consider `COc1cc2c(cc1O)C1Cc3ccc(OC)c(O)c3C[N+]1(C)CC2.[Cl-]` (stereo not shown) [Cyclanoline (chloride)], for which, under “experiment 1, 72 h”, the “Growth Inhibition (%) at 72h, 1 µM_Exp1” value is reported as -48.98% and the “Growth Inhibition (%) at 72h, 10 µM_Exp1” value came out at 77.56%. Moreover, where the note is “experiment 2, 72 h”, the “Growth Inhibition (%) at 72h, 1 µM_Exp2” value was found to be 13.86% and the “Growth Inhibition (%) at 72h, 10 µM_Exp2” value is recorded as 17.25%.
The matching figures for `CN1[C@@H](CC(=O)c2ccccc2)CCC[C@H]1CC(=O)c1ccccc1` [Lobelanine]: -73.70%, 75.56%, 10.47% and 20.66%.
On to `C[C@H]1CC[C@]2(NC1)O[C@H]1C[C@H]3[C@@H]4CC[C@H]5C[C@@H](O)CC[C@]5(C)[C@H]4CC[C@]3(C)[C@H]1[C@@H]2C` [Tomatidine], for which the inhibition at 1 µM is, setting by setting: under setting [1], 11.2%; under setting [2], 18.6%. Further, the inhibition at 10 µM reads like this: under setting [3], 66.9%; under setting [4], 75.1%.
For the compound `COc1ccc2cc3[n+](cc2c1OC)CCc1cc2c(cc1-3)OCO2.O.[Cl-]` [Berberine (chloride hydrate)], where the note is “experiment 1, 72 h”, the “Growth Inhibition (%) at 72h, 1 µM_Exp1” value was 29.91% and the “Growth Inhibition (%) at 72h, 10 µM_Exp1” value was determined as 98.55%. Also, for the setting “experiment 2, 72 h”, the “Growth Inhibition (%) at 72h, 1 µM_Exp2” value was 24.54% and the “Growth Inhibition (%) at 72h, 10 µM_Exp2” value was 99.87%.
